Patent publication US7064115B2, “(20S)-1α-hydroxy-2α-methyl and 2β-methyl-19-nor-vitamin D3 and their uses” (Wisconsin Alumni Research Foundation, priority 2002, dated 2006)

Legend:
[1] = Intestinal calcium transport in rats on low calcium diet, chronic i.p. doses; assay type: in vivo, Sprague-Dawley rats; settings: for Ca transport S/M (mean ± SEM): male weanling rats, 0.02% Ca diet, 5 animals; for Activity in stimulating intestinal calcium transport relative to 1,25-(OH)2D3 (in words): summary of Table 1
Protocol: Intestinal calcium transport was determined as described by Perlman et al. (Biochemistry 29, 190–196, 1990).
(§1) Male, weanling Sprague-Dawley rats were placed on Diet 11 (0.47% Ca) diet+AEK for 11 days, followed by Diet 11 (0.02% Ca)+AEK for 31 days. Dosing (i.p.) began 7 days prior to sacrifice. Doses were given on a daily basis, 24 hours apart. The first 10 cm of the intestine was collected for gut transport studies and serum was collected for bone Ca mobilization analysis.

[2] = Serum calcium (bone calcium mobilization) in rats on low calcium diet, chronic i.p. doses; assay type: in vivo, Sprague-Dawley rats; set-up: Serum Ca (mean ± SEM): unit not given here; settings: for Serum Ca (mean ± SEM): male weanling rats, 0.02% Ca diet, 5 animals; for Bone calcium mobilization activity relative to 1,25-(OH)2D3 (in words): summary of Table 1
Protocol: The in vivo tests to determine serum calcium of rats on a low calcium diet provides an insight to […] or bone activity of (20S)-1α-hydroxy-2α-methyl-19-nor-vitamin D3 and (20S)-1α-hydroxy-2β-methyl-19-nor-vitamin D3.
as §1

HL-60 cells = assay: Differentiation of HL-60 promyelocytes into monocytes; assay type: cell-based; settings: FIG. 2
Protocol: FIG. 2 is a graph illustrating the percent HL-60 cell differentiation as a function of the concentration of (20S)-1α-hydroxy-2α-methyl-19-nor-vitamin D3, (20S)-1α-hydroxy-2β-methyl-19-nor-vitamin D3, and of 1α,25-dihydroxyvitamin D3.
The differentation of HL-60 promyelocytic into monoctyes was determined as described by Ostrem et al. (J. Boil. Chem. 262, 14164–14171, 1987).

[3] = molecular target: T1, vitamin D pig intestinal nuclear receptor (Sus scrofa, UniProt A3RGC1); assay: Competitive binding of [3H]-1,25-(OH)2-D3 to the porcine intestinal vitamin D receptor; settings: FIG. 1; for Binding to the vitamin D receptor (in words): compared with 1,25-(OH)2D3
T1 construct: from tissue; host or cells: pig intestine (nuclear receptor preparation)
T1 sequence (A3RGC1 1-427): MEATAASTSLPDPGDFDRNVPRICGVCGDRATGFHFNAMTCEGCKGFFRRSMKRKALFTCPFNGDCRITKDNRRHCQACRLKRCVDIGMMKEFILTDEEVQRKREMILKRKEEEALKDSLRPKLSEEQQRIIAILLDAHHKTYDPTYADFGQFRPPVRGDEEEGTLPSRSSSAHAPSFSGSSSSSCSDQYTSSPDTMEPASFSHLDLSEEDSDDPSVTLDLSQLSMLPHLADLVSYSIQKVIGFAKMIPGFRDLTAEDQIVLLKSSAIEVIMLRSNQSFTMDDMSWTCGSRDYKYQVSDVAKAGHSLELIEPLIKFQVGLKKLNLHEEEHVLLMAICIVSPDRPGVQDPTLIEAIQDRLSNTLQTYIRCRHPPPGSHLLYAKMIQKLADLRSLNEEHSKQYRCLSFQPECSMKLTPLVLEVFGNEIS
Protocol: FIG. 1 is a graph illustrating the relative activity of (20S)-1α-hydroxy-2α-methyl-19-nor-vitamin D3, (20S)-1α-hydroxy-2β-methyl-19-nor-vitamin D3, and 1α,25-dihydroxyvitamin D3 to compete for binding of [^3H]-1,25-(OH)2-D3 to the vitamin D pig intestinal nuclear receptor; and
Competitive binding of the analogs to the porcine intestinal receptor was carried out by the method described by Dame et al. (Biochemistry 25, 4523–4534, 1986).

[4] = 130 pmol/day i.p. daily for 7 days
[5] = 260 pmol/day i.p. daily for 7 days

SMILES | Ca transport S/M (mean ± SEM) [1, 4] | Ca transport S/M (mean ± SEM) [1, 5] | Serum Ca (mean ± SEM) [2, 4] | Serum Ca (mean ± SEM) [2, 5] | Activity in stimulating intestinal calcium transport relative to 1,25-(OH)2D3 (in words) [1] | Potency on HL-60 differentiation relative to 1,25-(OH)2D3 (in words) (HL-60 cells; listed as (20S)-1α-Hydroxy-2α-methyl-19-nor-vitamin D3) | Potency on HL-60 differentiation relative to 1,25-(OH)2D3 (in words) (HL-60 cells; listed as (20S)-1α-hydroxy-2α-methyl-19-nor-vitamin D3) | Binding to the vitamin D receptor (in words) [3] | Affinity for the vitamin D receptor, fold less than 1α,25-dihydroxyvitamin D3 ([3]; relative to 1,25-(OH)2D3) [fold] | Bone calcium mobilization activity relative to 1,25-(OH)2D3 (in words) [2] | Potency on HL-60 differentiation relative to 1,25-(OH)2D3 (in words) (HL-60 cells) | HL-60 differentiation activity, times less active than 1,25(OH)2D3 (HL-60 cells; relative to 1,25(OH)2D3) [times] | Binding to the vitamin D receptor (in words) ([3]; listed as 2β-methyl-(20S)-1α-hydroxyvitamin D3)
C=C1/C(=C\C=C2/CCC[C@]3(C)[C@@H]([C@H](C)CCCC(C)(C)O)CC[C@@H]23)C[C@@H](O)C[C@@H]1O [1α,25-(OH)2D3, 1α,25-dihydroxyvitamin D3, reference compound] | 5.3 ± 0.42 | 6.5 ± 0.84 | 5.0 ± 0.05 | 5.5 ± 0.16 | – | – | – | – | – | – | – | – | –
CC(C)CCC[C@H](C)C1CCC2/C(=C/C=C3C[C@@H](O)C(C)[C@H](O)C3)CCC[C@@]21C (stereo partly drawn) [(20S)-1α-(OH)-2α-methyl-19-nor-D3, (20S)-1α-hydroxy-2α-methyl-19-nor-vitamin D3] | 8.6 ± 0.90 | 6.7 ± 0.68 | 10.0 ± 0.20 | 12.7 ± 0.15 | high activity relative to that of 1,25-(OH)2D3 | only slightly less active than 1,25-(OH)2D3 | almost as potent as 1,25-(OH)2D3 | much less active than 1,25(OH)2D3 | 100 | higher bone calcium mobilization activity, as compared to 1,25-(OH)2D3 | – | – | –
CC(C)CCC[C@H](C)C1CCC2/C(=C/C=C3C[C@@H](O)C(C)[C@H](O)C3)CCC[C@@]21C (stereo partly drawn) [(20S)-1α-(OH)-2β-methyl-19-nor-D3, (20S)-1α-hydroxy-2β-methyl-19-nor-vitamin D3] | 6.8 ± 0.73 | 5.7 ± 0.45 | 4.8 ± 0.04 | 5.1 ± 0.04 | about the same as 1,25-(OH)2D3 | – | – | much less active than 1,25(OH)2D3 | – | about the same as 1,25-(OH)2D3 | only slightly less active than 1,25-(OH)2D3 | 100 | does not bind
